Experimental data taken from ChEMBL document CHEMBL1201862, “PubChem BioAssay data set” (2004).
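In this assay, cells in 96-well plates receive the compound at five concentrations for 48 hours. Endpoints are linearly interpolated between the surrounding concentrations. The concentration for 50% growth inhibition is given as GI50.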 Active and inactive are the calls of the source. No stated cut-off is given here; in the data, active = GI50 up to about 1.1 µM and inactive = higher.

How the values were obtained:
Assay in all cases: DTP human tumour cell line panel, 48 h
Malme-3M = tested on: Malme-3M
SK-MEL-5 = tested on: SK-MEL-5
TK-10 = tested on: TK-10
MDA-MB-231 = tested on: MDA-MB-231
UACC-257 = tested on: UACC-257
UO-31 = tested on: UO-31
SF-539 = tested on: SF-539
SK-MEL-2 = tested on: SK-MEL-2
SNB-75 = tested on: SNB-75
EKVX = tested on: EKVX
K562 = tested on: K562
SF-295 = tested on: SF-295
MOLT-4 = tested on: MOLT-4
HCT-116 = tested on: HCT-116
HOP-92 = tested on: HOP-92
SNB-19 = tested on: SNB-19
SR = tested on: SR
SK-OV-3 = tested on: SK-OV-3
KM12 = tested on: KM12
Hs-578T = tested on: Hs-578T
OVCAR-8 = tested on: OVCAR-8
OVCAR-4 = tested on: OVCAR-4
HT-29 = tested on: HT-29
T47D = tested on: T47D
BT-549 = tested on: BT-549
IGROV-1 = tested on: IGROV-1
MDA-MB-435 = tested on: MDA-MB-435
UACC-62 = tested on: UACC-62
ACHN = tested on: ACHN
MDA-N = tested on: MDA-N
SK-MEL-28 = tested on: SK-MEL-28
SW-620 = tested on: SW-620
PC-3 = tested on: PC-3
U-251 = tested on: U-251
LOX IMVI = tested on: LOX IMVI
NCI-H460 = tested on: NCI-H460
CAKI-1 = tested on: CAKI-1
A498 = tested on: A498
COLO 205 = tested on: COLO 205
HCC 2998 = tested on: HCC 2998
A549 = tested on: A549
NCI-H23 = tested on: NCI-H23
NCI/ADR-RES = tested on: NCI/ADR-RES
DU-145 = tested on: DU-145
HCT-15 = tested on: HCT-15
786-0 = tested on: 786-0
SN12C = tested on: SN12C
HL-60 = tested on: HL-60
MCF7 = tested on: MCF7
CCRF-CEM = tested on: CCRF-CEM
NCI-H226 = tested on: NCI-H226
HOP-62 = tested on: HOP-62
RXF 393 = tested on: RXF 393
OVCAR-5 = tested on: OVCAR-5
M14 = tested on: M14
SF-268 = tested on: SF-268
NCI-H522 = tested on: NCI-H522
OVCAR-3 = tested on: OVCAR-3
RPMI-8226 = tested on: RPMI-8226

Question: COc1ccc(CC/N=C2\OCc3ccccc32)cc1OC was tested. Which GI50 (Malme-3M) did it give?
Answer: 56.8 µM (inactive)

Question: What about the GI50 (SK-MEL-5) of the same molecule?
Answer: 43.3 µM (inactive)

Question: And the GI50 (TK-10)?
Answer: > 100 µM (inactive)

Question: What about the GI50 (MDA-MB-231) of the same molecule?
Answer: 61.8 µM (inactive)

Question: What about the GI50 (UACC-257) of the same molecule?
Answer: > 100 µM (inactive)

Question: What about the GI50 (UO-31) of the same molecule?
Answer: 69 µM (inactive)

Question: And the GI50 (SF-539)?
Answer: 20.7 µM (inactive)

Question: And the GI50 (SK-MEL-2)?
Answer: 51.2 µM (inactive)

Question: And the GI50 (SNB-75)?
Answer: 68.2 µM (inactive)

Question: What about the GI50 (EKVX) of the same molecule?
Answer: 76.2 µM (inactive)

Question: What about the GI50 (K562) of the same molecule?
Answer: 23.4 µM (inactive)

Question: What about the GI50 (SF-295) of the same molecule?
Answer: 33.3 µM (inactive)

Question: What about the GI50 (MOLT-4) of the same molecule?
Answer: 50.4 µM (inactive)

Question: And the GI50 (HCT-116)?
Answer: 24 µM (inactive)

Question: What about the GI50 (HOP-92) of the same molecule?
Answer: 31.2 µM (inactive)

Question: What about the GI50 (SNB-19) of the same molecule?
Answer: > 100 µM (inactive)

Question: And the GI50 (SR)?
Answer: 11.5 µM (inactive)

Question: What about the GI50 (SK-OV-3) of the same molecule?
Answer: 30.5 µM (inactive)

Question: And the GI50 (KM12)?
Answer: 31.5 µM (inactive)

Question: What about the GI50 (Hs-578T) of the same molecule?
Answer: 67 µM (inactive)

Question: What about the GI50 (OVCAR-8) of the same molecule?
Answer: 91.8 µM (inactive)

Question: What about the GI50 (OVCAR-4) of the same molecule?
Answer: 59 µM (inactive)

Question: And the GI50 (HT-29)?
Answer: 32.1 µM (inactive)

Question: What about the GI50 (T47D) of the same molecule?
Answer: 27.5 µM (inactive)

Question: And the GI50 (BT-549)?
Answer: > 100 µM (inactive)

Question: What about the GI50 (IGROV-1) of the same molecule?
Answer: 67 µM (inactive)

Question: And the GI50 (MDA-MB-435)?
Answer: 43.2 µM (inactive)

Question: And the GI50 (UACC-62)?
Answer: 29.2 µM (inactive)

Question: And the GI50 (ACHN)?
Answer: 52.5 µM (inactive)

Question: And the GI50 (MDA-N)?
Answer: 38.8 µM (inactive)

Question: What about the GI50 (SK-MEL-28) of the same molecule?
Answer: > 100 µM (inactive)

Question: And the GI50 (SW-620)?
Answer: 54.5 µM (inactive)

Question: And the GI50 (PC-3)?
Answer: 46.9 µM (inactive)

Question: What about the GI50 (U-251) of the same molecule?
Answer: > 100 µM (inactive)

Question: What about the GI50 (LOX IMVI) of the same molecule?
Answer: 41.2 µM (inactive)

Question: And the GI50 (NCI-H460)?
Answer: 45.5 µM (inactive)

Question: What about the GI50 (CAKI-1) of the same molecule?
Answer: 62.4 µM (inactive)

Question: And the GI50 (A498)?
Answer: > 100 µM (inactive)

Question: What about the GI50 (COLO 205) of the same molecule?
Answer: 49.3 µM (inactive)

Question: And the GI50 (HCC 2998)?
Answer: > 100 µM (inactive)

Question: What about the GI50 (A549) of the same molecule?
Answer: 46.3 µM (inactive)

Question: And the GI50 (NCI-H23)?
Answer: 32.7 µM (inactive)

Question: What about the GI50 (NCI/ADR-RES) of the same molecule?
Answer: 67 µM (inactive)

Question: What about the GI50 (DU-145) of the same molecule?
Answer: 32.4 µM (inactive)

Question: And the GI50 (HCT-15)?
Answer: 38.8 µM

Question: And the GI50 (786-0)?
Answer: 45.3 µM (inactive)

Question: What about the GI50 (SN12C) of the same molecule?
Answer: 69.3 µM (inactive)

Question: What about the GI50 (HL-60) of the same molecule?
Answer: 5.42 µM (inactive)

Question: And the GI50 (MCF7)?
Answer: 27.7 µM (inactive)

Question: What about the GI50 (CCRF-CEM) of the same molecule?
Answer: 29.1 µM (inactive)

Question: And the GI50 (NCI-H226)?
Answer: 51.3 µM (inactive)

Question: For Oc1ccc(Cl)cc1/C=N/c1cnc2ccccc2c1, which GI50 (Malme-3M) is on record?
Answer: > 70.6 µM (inactive)

Question: What about the GI50 (HOP-62) of the same molecule?
Answer: 35.5 µM (inactive)

Question: What about the GI50 (SK-MEL-5) of the same molecule?
Answer: 27.5 µM (inactive)

Question: And the GI50 (TK-10)?
Answer: > 100 µM (inactive)

Question: And the GI50 (MDA-MB-231)?
Answer: 32.6 µM (inactive)

Question: What about the GI50 (RXF 393) of the same molecule?
Answer: > 100 µM (inactive)

Question: What about the GI50 (UACC-257) of the same molecule?
Answer: 5.01 µM (inactive)

Question: And the GI50 (UO-31)?
Answer: 45.6 µM (inactive)

Question: What about the GI50 (SF-539) of the same molecule?
Answer: 13.4 µM (inactive)

Question: And the GI50 (SK-MEL-2)?
Answer: 27.2 µM (inactive)

Question: What about the GI50 (SNB-75) of the same molecule?
Answer: 33.1 µM (inactive)

Question: And the GI50 (EKVX)?
Answer: 29.7 µM (inactive)

Question: What about the GI50 (K562) of the same molecule?
Answer: 10.2 µM (inactive)

Question: And the GI50 (OVCAR-5)?
Answer: > 100 µM (inactive)

Question: What about the GI50 (SF-295) of the same molecule?
Answer: 36.7 µM (inactive)

Question: What about the GI50 (MOLT-4) of the same molecule?
Answer: 2.84 µM (inactive)

Question: And the GI50 (HCT-116)?
Answer: 11.3 µM (inactive)

Question: What about the GI50 (HOP-92) of the same molecule?
Answer: 28.1 µM (inactive)

Question: And the GI50 (SNB-19)?
Answer: 29 µM (inactive)

Question: And the GI50 (SR)?
Answer: 18.8 µM (inactive)

Question: And the GI50 (SK-OV-3)?
Answer: 33.3 µM (inactive)

Question: What about the GI50 (M14) of the same molecule?
Answer: 16.9 µM (inactive)

Question: And the GI50 (KM12)?
Answer: 30.6 µM (inactive)

Question: What about the GI50 (Hs-578T) of the same molecule?
Answer: > 68.9 µM (inactive)

Question: What about the GI50 (OVCAR-8) of the same molecule?
Answer: 27 µM (inactive)

Question: And the GI50 (OVCAR-4)?
Answer: 27.4 µM (inactive)

Question: What about the GI50 (HT-29) of the same molecule?
Answer: 36.6 µM (inactive)

Question: What about the GI50 (T47D) of the same molecule?
Answer: 4.81 µM (inactive)

Question: What about the GI50 (BT-549) of the same molecule?
Answer: 22.3 µM (inactive)

Question: What about the GI50 (IGROV-1) of the same molecule?
Answer: 16 µM (inactive)

Question: And the GI50 (MDA-MB-435)?
Answer: 36.7 µM (inactive)

Question: And the GI50 (UACC-62)?
Answer: 32.7 µM (inactive)

Question: And the GI50 (SF-268)?
Answer: 29.1 µM (inactive)

Question: What about the GI50 (ACHN) of the same molecule?
Answer: > 57.1 µM (inactive)

Question: What about the GI50 (MDA-N) of the same molecule?
Answer: 34.7 µM (inactive)

Question: What about the GI50 (NCI-H522) of the same molecule?
Answer: > 86.7 µM (inactive)

Question: And the GI50 (SK-MEL-28)?
Answer: > 68.9 µM (inactive)

Question: And the GI50 (SW-620)?
Answer: 24.8 µM (inactive)

Question: What about the GI50 (PC-3) of the same molecule?
Answer: 14.3 µM (inactive)

Question: What about the GI50 (U-251) of the same molecule?
Answer: 11.9 µM (inactive)

Question: And the GI50 (LOX IMVI)?
Answer: 8.17 µM (inactive)

Question: What about the GI50 (NCI-H460) of the same molecule?
Answer: 33.7 µM (inactive)

Question: What about the GI50 (OVCAR-3) of the same molecule?
Answer: 14.5 µM (inactive)

Question: What about the GI50 (CAKI-1) of the same molecule?
Answer: > 100 µM (inactive)

Question: What about the GI50 (A498) of the same molecule?
Answer: > 100 µM (inactive)

Question: What about the GI50 (COLO 205) of the same molecule?
Answer: 53.8 µM (inactive)

Question: What about the GI50 (RPMI-8226) of the same molecule?
Answer: 13.1 µM (inactive)

Question: And the GI50 (A549)?
Answer: > 92.7 µM (inactive)

Question: And the GI50 (NCI-H23)?
Answer: 33.9 µM (inactive)

Question: What about the GI50 (NCI/ADR-RES) of the same molecule?
Answer: 27.7 µM (inactive)

Question: What about the GI50 (DU-145) of the same molecule?
Answer: 41.5 µM (inactive)

Question: And the GI50 (HCT-15)?
Answer: 4.4 µM

Question: What about the GI50 (786-0) of the same molecule?
Answer: 37.9 µM (inactive)

Question: What about the GI50 (SN12C) of the same molecule?
Answer: 30.3 µM (inactive)

Question: What about the GI50 (HL-60) of the same molecule?
Answer: 4.56 µM (inactive)

Question: What about the GI50 (MCF7) of the same molecule?
Answer: 22.6 µM (inactive)

Question: And the GI50 (CCRF-CEM)?
Answer: 1.52 µM (inactive)

Question: What about the GI50 (NCI-H226) of the same molecule?
Answer: 55.2 µM (inactive)
